Measured values taken from patent US10954252B1, “Inhibitors of human immunodeficiency virus replication” (ViiV HEALTHCARE UK (NO.5) LIMITED, priority 2017, dated 2021).
pEC50: −log10 of the molar value.

Key:
[1] = system: recombinant NL4-3 virus (nef section replaced with Renilla luciferase gene) in MT-2 cells; assay: HIV cell culture assay (antiviral activity, luciferase readout); format: cell-based; details: Renilla, NL43, Table 1a; MT-2 cells infected for 4-5 days with recombinant NL4-3 luciferase virus
Procedure, shortened: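 Serially diluted compounds were present throughout a 4-5 day infection of MT-2 cells by recombinant NL4-3 whose nef region partly encodes Renilla luciferase. Antiviral activity was taken from live-cell luciferase signal, with the 50% effective concentration fitted by the exponential median effect equation.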

[2] = Compound cytotoxicity, XTT-based colorimetric assay; format: cell-based; details: human, uninfected MT2 cells, Table 1a, day 4, XTT
Procedure, shortened: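 XTT colorimetric read-out on day 4 gave CC50 values, using MT2 cells left uninfected but otherwise handled as in the antiviral assay.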

Row | SMILES | pEC50 [1] | CC50 at 4 days [2] [nM]
1 | CN1CCN(S(=O)(=O)c2ccc(-c3cc4[nH]ncc4nc3[C@H](Cc3cc(F)cc(F)c3)NC(=O)Cn3nc(C(F)F)c4c3C(F)(F)[C@@H]3C[C@H]43)cc2)CC1 [Example 28, 2-((3bS,4aR)-3-(difluoromethyl)-5,5-difluoro-3b,4,4a,5-tetrahydro-1H-cyclopropa[3,4]cyclopenta[1,2-c]pyrazol-1-yl)-N—((S)-2-(3,5-difluorophenyl)-1-(6-(4-((4-methylpiperazin-1-yl)sulfonyl)phenyl)-1H-pyrazolo[4,3-b]pyridin-5-yl)ethyl)acetamide] | 7.70 | > 10000
2 | COc1ccc(-n2c([C@H](Cc3cc(F)cc(F)c3)NC(=O)Cn3nc(C(F)F)c4c3C(F)(F)[C@@H]3C[C@H]43)nc3ncccc3c2=O)cn1 [Example 29, 2-[(2S,4R)-9-(difluoromethyl)-5,5-difluoro-7,8-diazatricyclo[4.3.0.0^2,4]nona-1(6),8-dien-7-yl]-N-[(1S)-2-(3,5-difluorophenyl)-1-[3-(6-methoxypyridin-3-yl)-4-oxo-3H,4H-pyrido[2,3-d]pyrimidin-2-yl]ethyl]acetamide] | 7.59 | > 10000
3 | O=C(Cn1nc(C(F)F)c2c1C(F)(F)[C@@H]1C[C@H]21)N[C@@H](Cc1cc(F)cc(F)c1)c1nc2ncccc2c(=O)n1-c1ccc(OC(F)F)cc1 [Example 30, N-[(1S)-1-{3-[4-(difluoromethoxy)phenyl]-4-oxo-3H,4H-pyrido[2,3-d]pyrimidin-2-yl}-2-(3,5-difluorophenyl)ethyl]-2-[(2S,4R)-9-(difluoromethyl)-5,5-difluoro-7,8-diazatricyclo[4.3.0.0^2,4]nona-1(6),8-dien-7-yl]acetamide] | 8.30 | 3160
4 | O=C(Cn1nc(C(F)F)c2c1C(F)(F)[C@@H]1C[C@H]21)N[C@@H](Cc1cc(F)cc(F)c1)c1nc2ncccc2c(=O)n1-c1ccc2c(c1)C(=O)NC2 [Example 31, 2-[(2S,4R)-9-(difluoromethyl)-5,5-difluoro-7,8-diazatricyclo[4.3.0.0^2,4]nona-1(6),8-dien-7-yl]-N-[(1S)-2-(3,5-difluorophenyl)-1-[4-oxo-3-(3-oxo-2,3-dihydro-1H-isoindol-5-yl)-3H,4H-pyrido[2,3-d]pyrimidin-2-yl]ethyl]acetamide] | 9.00 | > 10000
5 | CN(C)S(=O)(=O)c1ccc(-n2c([C@H](Cc3cc(F)cc(F)c3)NC(=O)Cn3nc(C(F)F)c4c3C(F)(F)[C@@H]3C[C@H]43)nc3ncccc3c2=O)cc1 [Example 32, 2-[(2S,4R)-9-(difluoromethyl)-5,5-difluoro-7,8-diazatricyclo[4.3.0.0^2,4]nona-1(6),8-dien-7-yl]-N-[(1S)-2-(3,5-difluorophenyl)-1-{3-[4-(dimethylsulfamoyl)phenyl]-4-oxo-3H,4H-pyrido[2,3-d]pyrimidin-2-yl}ethyl]acetamide] | 8.96 | > 10000
6 | NC(=O)c1cc(-n2c([C@H](Cc3cc(F)cc(F)c3)NC(=O)Cn3nc(C(F)F)c4c3C(F)(F)[C@@H]3C[C@H]43)nc3ncccc3c2=O)ccc1F [Example 33, 5-{2-[(1S)-1-{2-[(2S,4R)-9-(difluoromethyl)-5,5-difluoro-7,8-diazatricyclo[4.3.0.0^2,4]nona-1(6),8-dien-7-yl]acetamido}-2-(3,5-difluorophenyl)ethyl]-4-oxo-3H,4H-pyrido[2,3-d]pyrimidin-3-yl}-2-fluorobenzamide] | 8.41 | > 10000
7 | NC(=O)c1cc(-n2c([C@H](Cc3cc(F)cc(F)c3)NC(=O)Cn3nc(C(F)F)c4c3C(F)(F)[C@@H]3C[C@H]43)nc3ncccc3c2=O)ccc1Cl [Example 34, 2-Chloro-5-{2-[(1S)-1-{2-[(2S,4R)-9-(difluoromethyl)-5,5-difluoro-7,8-diazatricyclo[4.3.0.0^2,4]nona-1(6),8-dien-7-yl]acetamido}-2-(3,5-difluorophenyl)ethyl]-4-oxo-3H,4H-pyrido[2,3-d]pyrimidin-3-yl}benzamide] | 8.16 | > 10000
8 | CC(C)c1ccc(-n2c([C@H](Cc3cc(F)cc(F)c3)NC(=O)Cn3nc(C(F)F)c4c3C(F)(F)[C@@H]3C[C@H]43)nc3ncccc3c2=O)cc1 [Example 35, 2-[(2S,4R)-9-(difluoromethyl)-5,5-difluoro-7,8-diazatricyclo[4.3.0.0^2,4]nona-1(6),8-dien-7-yl]-N-[(1S)-2-(3,5-difluorophenyl)-1-{4-oxo-3-[4-(propan-2-yl)phenyl]-3H,4H-pyrido[2,3-d]pyrimidin-2-yl}ethyl]acetamide] | 7.79 | 1580
9 | O=C(Cn1nc(C(F)F)c2c1C(F)(F)[C@@H]1C[C@H]21)N[C@@H](Cc1cc(F)cc(F)c1)c1nc2ncccc2c(=O)n1-c1ccc2ncsc2c1 [Example 36, N-[(1S)-1-[3-(1,3-benzothiazol-6-yl)-4-oxo-3H,4H-pyrido[2,3-d]pyrimidin-2-yl]-2-(3,5-difluorophenyl)ethyl]-2-[(2S,4R)-9-(difluoromethyl)-5,5-difluoro-7,8-diazatricyclo[4.3.0.0^2,4]nona-1(6),8-dien-7-yl]acetamide] | 7.98 | > 1000
10 | N#Cc1cnc2nc([C@H](Cc3cc(F)cc(F)c3)NC(=O)Cn3nc(C(F)F)c4c3C(F)(F)[C@@H]3C[C@H]43)n(-c3ccc(C4CC4)cc3)c(=O)c2c1 [Example 39, N-[(1S)-1-[6-cyano-3-(4-cyclopropylphenyl)-4-oxo-3H,4H-pyrido[2,3-d]pyrimidin-2-yl]-2-(3,5-difluorophenyl)ethyl]-2-[(2S,4R)-9-(difluoromethyl)-5,5-difluoro-7,8-diazatricyclo[4.3.0.0^2,4]nona-1(6),8-dien-7-yl]acetamide] | 8.42 | 2000
11 | Cc1cc(C)c2c(=O)n(-c3ccc(Cl)c4c(NS(C)(=O)=O)nn(C)c34)c([C@H](Cc3cc(F)cc(F)c3)NC(=O)Cn3nc(C(F)F)c4c3C(F)(F)[C@@H]3C[C@H]43)nc2n1 [Example 42.2, N-[(1S)-1-[3-(4-chloro-3-methanesulfonamido-1-methyl-1H-indazol-7-yl)-5,7-dimethyl-4-oxo-3H,4H-pyrido[2,3-d]pyrimidin-2-yl]-2-(3,5-difluorophenyl)ethyl]-2-[(2S,4R)-9-(difluoromethyl)-5,5-difluoro-7,8-diazatricyclo[4.3.0.0^2,4]nona-1(6),8-dien-7-yl]acetamide] | 10.80 | > 10000
12 | Cn1nc(NS(C)(=O)=O)c2c(Cl)ccc(-n3c([C@H](Cc4cc(F)cc(F)c4)NC(=O)Cc4c[nH]c5ccc(F)cc45)nc4ncccc4c3=O)c21 [Example 51, N-[(1S)-1-[3-(4-chloro-3-methanesulfonamido-1-methyl-1H-indazol-7-yl)-4-oxo-3H,4H-pyrido[2,3-d]pyrimidin-2-yl]-2-(3,5-difluorophenyl)ethyl]-2-(5-fluoro-1H-indol-3-yl)acetamide] | 8.98 | > 1000
13 | Cn1nc(NS(C)(=O)=O)c2c(Cl)ccc(-n3c([C@H](Cc4cc(F)cc(F)c4)NC(=O)Cn4nc(C(F)(F)F)c5c4CCC5)nc4ncccc4c3=O)c21 [Example 52, N-[(1S)-1-[3-(4-chloro-3-methanesulfonamido-1-methyl-1H-indazol-7-yl)-4-oxo-3H,4H-pyrido[2,3-d]pyrimidin-2-yl]-2-(3,5-difluorophenyl)ethyl]-2-[3-(trifluoromethyl)-1H,4H,5H,6H-cyclopenta[c]pyrazol-1-yl]acetamide] | 10.41 | > 1000
14 | Cn1nc(NS(C)(=O)=O)c2c(Cl)ccc(-n3c([C@H](Cc4cc(F)cc(F)c4)NC(=O)Cc4c[nH]c5ccc(O)cc45)nc4ncccc4c3=O)c21 [Example 53, N-[(1S)-1-[3-(4-chloro-3-methanesulfonamido-1-methyl-1H-indazol-7-yl)-4-oxo-3H,4H-pyrido[2,3-d]pyrimidin-2-yl]-2-(3,5-difluorophenyl)ethyl]-2-(5-hydroxy-1H-indol-3-yl)acetamide] | 8.24 | > 1000
15 | O=C(Cn1nc(C(F)F)c2c1C(F)(F)[C@@H]1C[C@H]21)NC(Cc1cc(F)cc(F)c1)c1nc2cc[nH]c2cc1-c1ccc2c(c1)C(=O)NC2 (stereo partly drawn) [Example 61, 2-((3bS,4aR)-3-(difluoromethyl)-5,5-difluoro-3b,4,4a,5-tetrahydro-1H-cyclopropa[3,4]cyclopenta[1,2-c]pyrazol-1-yl)-N-(2-(3,5-difluorophenyl)-1-(6-(3-oxoisoindolin-5-yl)-1H-pyrrolo[3,2-b]pyridin-5-yl)ethyl)acetamide] | 8.35 | > 10000
16 | Nc1c(-c2ccc3c(c2)C(=O)NC3)c([C@H](Cc2cc(F)cc(F)c2)NC(=O)Cn2nc(C(F)F)c3c2C(F)(F)[C@@H]2C[C@H]32)nc2ncnn12 [Example 62, N—((S)-1-(7-amino-6-(3-oxoisoindolin-5-yl)-[1,2,4]triazolo[1,5-a]pyrimidin-5-yl)-2-(3,5-difluorophenyl)ethyl)-2-((3bS,4aR)-3-(difluoromethyl)-5,5-difluoro-3b,4,4a,5-tetrahydro-1H-cyclopropa[3,4]cyclopenta[1,2-c]pyrazol-1-yl)acetamide] | 7.06 | > 10000
17 | O=C(Cn1nc(C(F)F)c2c1C(F)(F)[C@@H]1C[C@H]21)N[C@@H](Cc1cc(F)cc(F)c1)c1nc2cc[nH]c2cc1-c1ccc(S(=O)(=O)N2CCOCC2)cc1 [Example 65, 2-((3bS,4aR)-3-(difluoromethyl)-5,5-difluoro-3b,4,4a,5-tetrahydro-1H-cyclopropa[3,4]cyclopenta[1,2-c]pyrazol-1-yl)-N—((S)-2-(3,5-difluorophenyl)-1-(6-(4-(morpholinosulfonyl)phenyl)-1H-pyrrolo[3,2-b]pyridin-5-yl)ethyl)acetamide] | 8.69 | 2000
